According to patent US10697020B2, “MicroRNA-129 as a biomarker for colorectal cancer” (THE RESEARCH FOUNDATION FOR THE STATE UNIVERSITY OF NEW YORK, priority 2013, dated 2020):

System: Colon cancer stem cells, i.e., CD133^+HICD44^+HI cells
Test: Colon cancer stem cell tumor xenograft in NOD/SCID mice
Assay type: in vivo
Method: FIG. 3. miR-129 suppresses colorectal cancer cell growth and induces cell cycle arrest. (a) HCT116, […] and SW480 cells were transfected with either miR-129 or negative miRNA, and cell numbers were measured with WST-1 assay at days 1, 3 and 5. Cell cycle analysis was performed to determine the impact of miR-129. The representative flow cytometry pattern was shown in (b) and the G1/S and G2/S ratios were shown in (c) (n=3). (d) Colon cancer stem cells, i.e., CD133^+HICD44^+HI cells were subcutaneously injected into NOD/SCID mice (1×10^4 cells). Mice were treated with either (top left) control lentiviral GFP vector and lentiviral miR-129 expressing construct (n=5) or (top right) mice were injected with negative miRNA (n=5) or miR-129 precursor (n=5) at 1.25 nmol per injection. Tumor sizes were then analyzed 7 weeks after initial treatment (lentiviral or injection). […] Scale bar: 1 cm. (bottom left) Quantitative analysis of colon cancer stem cells in tumor xenografts transfected with lentiviral miR-129 or control constructs reveal a significant reduction in tumor size. (bottom right) Quantitative analysis of colon cancer stem cells in tumor xenografts transfected with control and miR-129 precursor RNA.

“miR-129: nucleic acid having a sequence of CUUUUUGCGGUCUGGGCUUGC (SEQ ID NO. 1); miR-129 precursor from Ambion used (chemistry not given here; listed as Homo sapiens)” was tested, and the tumor size (delivery via lentiviral miR-129 expressing construct vs control lentiviral GFP vector, 7 weeks) was “reduces tumor size significantly” and the tumor size (injection of miR-129 precursor at 1.25 nmol per injection vs negative miRNA, 7 weeks after initial treatment) was “reduces tumor size significantly”.
